These results are taken from PMC6030209, “Structure-Activity Investigations and Optimisations of Non-metabolite Agonists for the Succinate Receptor 1” (Scientific Reports, 2018).

In general, EC50 refers to the midpoint of the concentration-response curve. Usually kinetic solubility stands for solubility judged after dilution from a stock solution rather than from solid. As a reminder, the logD is lipophilicity at a set pH, counting ionised and neutral species. A higher logD goes with a more lipophilic compound.

One data set addresses T1, mSUCNR1 (Mus musculus, UniProt Q99MT6).
T1 construct: FLAG (own knowledge: pCMV-Tag 2B is an N-terminal FLAG vector); host or cells: HEK-293, transient transfection with Lipofectamine-2000
T1 sequence (Q99MT6 1-317): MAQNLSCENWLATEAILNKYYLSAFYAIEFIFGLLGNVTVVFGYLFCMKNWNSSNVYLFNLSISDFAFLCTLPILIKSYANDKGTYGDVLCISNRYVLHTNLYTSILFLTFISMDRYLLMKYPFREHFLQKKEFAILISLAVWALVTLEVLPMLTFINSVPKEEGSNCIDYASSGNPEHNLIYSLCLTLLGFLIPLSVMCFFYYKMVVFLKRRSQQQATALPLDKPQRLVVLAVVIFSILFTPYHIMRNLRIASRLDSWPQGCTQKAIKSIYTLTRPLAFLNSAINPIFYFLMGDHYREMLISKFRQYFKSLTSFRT
Put plainly: IP3 turnover assay in mSUCNR1 transfected HEK-293 cells. Format: cell-based. Conditions: for mSUCNR1 efficacy, %: efficacy relative to succinate (100%), IP3 turnover, HEK cells (N = 3). Here is the method:
Receptor constructs for mSUCNR1 and hSUCNR1 were bought from Origene and cloned into the eukaryotic expression vector pCMV-Tag(2B) (Stratagene).
Transient transfection of the HEK-293 cells was done with Lipofectamine-2000 according to manufacturer’s protocol. Cells were supplemented with fresh medium after 5 h.
96-well plates were coated with poly-D-lysine and HEK-293 cells were plated (35.000 cells/well). Cells were transfected for 5 h the following day and subsequently incubated O/N with 0.5 μCi/mL myo[3H]inositol (Perkin Elmer) in 100 μL growth medium. On day 3 cells were washed with 200 µL HBSS/well (Gibco, Life Technologies) followed by a pre-incubation (30 min, 37 °C) with 100 µL HBSS supplemented with 10 mM LiCl. Cells were stimulated with ligand (120 min, 37 °C) and lysed with 50 µL 10 mM formic acid (30 min on ice). In a white 96 well plate 20 µL cell extracts and 80 µL 1:8 diluted YSi scintillation beads (Perkin Elmer) were mixed. The plate was spun down, and a Packard Top Count NXT counter recorded light emission (scintillation) after an 8 h delay.

Data set [1] is classed as in vitro ADME, mouse. To be noted: 1 hour, 1 μM, 0.5 mg/mL microsomes. How it is done:
Microsomal stability was studied in mouse liver microsomes (0.5 mg/mL) at a final test compound concentration of 1 μM and performed in triplicates in accordance to the published protocol. In short: Prewarmed (37 °C) 0.1 M PBS7.4, 10 mM NADPH in PBS7.4 and test compound (1 mM in DMSO) were added to an Eppendorf® Tube. The samples were incubated for 5 min at 37 °C before addition of newly thawned microsomes. The samples were mixed by gentle vortexing and incubated for 1 h at 37 °C, 300 rpm in an Eppendorf® Thermomixer. Samples were quenched by addition of ice-cold MeOH/MeCN (1:1) and centrifuged for 5 min at 10,000 g. The supernatant was transferred to HPLC vials and stored in the freezer until analysis by HPLC/UPLC. The metabolic stability was calculated based on a 0 min sample. All compounds were analysed in triplicates.

Data set [2] concerns SUCNR1. The data set can be described thus: Active/inactive grouping by EC50 threshold (ALiBERO training set, Table S1). To be noted: active (1) / inactive (0), EC50 threshold of 10 µM. In kind it is cell-based. From the text:
In brief, starting from the homology model supported by mutagenesis data[4], ALiBERO introduced receptor flexibility via Normal Mode Analysis and Monte Carlo sampling, to generate a small subset of receptor models (pockets). […] For a list of all compounds used in the optimisation protocol, see Table S1. Receptor structures were then chosen based on their ability to discriminate actives from inactives in a retrospective virtual screening using the docking protocol and scoring function in ICM (Molsoft L.L.C., San Diego, CA, USA)[20], as measured by the normalised square root area under the curve (NSQ_AUC). […] The ALiBERO-optimised receptor ensemble was subsequently validated in a virtual ligand screening using an external test set with a higher active:decoy ratio (~1:50).
ALiBERO is an iterative sampling-selection protocol for receptor optimisation that relies on the use of ligand information for selecting the best-performing receptor conformations. Homology models of the mouse SUCNR1 receptor were constructed according to Trauelsen et al.[4] and loaded into ICM (Molsoft L.L.C., San Diego, CA, USA). The structure was converted into an ICM object, thereby assigning protein atom types, optimising hydrogens and His, Pro, Asn, […] and Cys side-chain conformations. […] For a list of all compounds used in the optimisation protocol, see Table S1. ALiBERO was performed using the prepared receptor structure and ligand training set as input. Binding site residues were manually selected based on proximity to the position of MRS2500 in the superimposed structure of the P2Y1 receptor (PDB 4XNW). 100 elastic network normal mode analysis derived conformers were built in order to recreate backbone and side-chain flexibility (T = 300 K). Next, a flexible-ligand static-receptor small-scale virtual screening was performed on each of the receptor conformers, from which several pockets were selected for the following generation. The ligand and decoy molecules were docked into mSUCNR1, represented as pre-calculated potential grids and then sorted according to their ICM VLS scores. The maximum number of complementary pockets for each generation was set to 5 with a maximum of 10 generations. Receptor models were selected based on their combined screening performance, as determined by the normalised square root area under the curve, NSQ_AUC. After each round of virtual screening, an all-atom Monte Carlo side-chain refinement was performed to account for induced-by-ligand changes. NSQ_AUC values were calculated according to Katritch et al.[16].

The format of data set [3] is in vitro ADME. To be noted: 2 hours, 37 °C; for stability in FaSSGF: simulated gastrointestinal fluid FaSSGF; for stability in FaSSIF: simulated gastrointestinal fluid FaSSIF. Here is the method:
FaSSIF, FeSSGF and FaSSGF were prepared in accordance to the manufacturers procedure, Biorelevant.com. Triplicates of a 50 μM solution of the test compounds were prepared from a 10 mM stock solution in DMSO diluted with FaSSGF/FaSSIF/FeSSIF. The samples were incubated in an Eppendorf® Thermomixer (37 °C, 650 rpm). Samples were withdrawn at 0 min and 120 min, centrifuged (10 min at 10,000 rpm) and the supernatant analysed by HPLC/UPLC. The stability was calculated based on peak area of a 0 point sample.

Another data set is described as follows: physchem. In kind it is physicochemical. To be noted: pH 7.4, aqueous buffer, kinetic from dmso stock, 10 mM PBS7.4, 25 °C. Here is the method: Duplicates of a 200 μM solution of the dicarboxylic acids were prepared from 0.01 M PBS7.4 and a 10 mM stock solution in DMSO. The samples were incubated in an Eppendorf® Thermomixer (25 °C, 800 rpm) for 24 h. Afterwards, the samples were centrifuged for 5 min at 11,000 rpm and the supernatant was filtered (0.45 μm PTFE membrane) before analysis by HPLC. The solubility was calculated based on a concentration-absorption curve.

The format of data set [4] is physicochemical. Conditions: after 70 hours in 10 mM PBS7.4, 37 °C. How it is done: Triplicates of a 50 μM solution of the test compounds were prepared from 0.01 M PBS7.4 and a 10 mM stock solution in DMSO. The samples were incubated in an Eppendorf® Thermomixer (37 °C, 650 rpm). The samples were briefly vortexed and 50 μL aliquots were withdrawn at the time points 0 h, 24 h, 48 h etc. and analysed immediately on UPLC. The chemical stability in PBS7.4 was determined at every time point in percentage relative to the 0 h time point.

The nature of data set [5]: logD7.4 determination (1-octanol/PBS7.4 shake flask). Format: physicochemical. To be noted: 1-octanol/PBS7.4, pH 7.4. How it is done:
A glass vial with screw cap (8 mL) was charged with test compound (40 μL, 10 mM in DMSO), PBS7.4 (0.01 M, 1980 μL), and 1-octanol (1980 μL). The vial was capped and sealed with parafilm and shaken at 700 rpm using an IKA® KS 125 basic shaker for 24 h at room temperature. The parafilm was removed and the sample was allowed to equilibrate for 1 h before analysis. 100 μL of the octanol phase was withdrawn and diluted 1:10 with MeOH(+0.1% formic acid)/MilliQ water (4:1, v/v) and analysed by HPLC/UPLC. The interface was removed and the PBS7.4 phase analysed directly by HPLC/UPLC. All analysis was performed in duplicates and logD values were calculated from the peak areas (mAU*min) and adjusted for difference in injection volume and concentration-absorption effects from the solvents, using two calibration points per compound per solvent, and dilution of the octanol phase. All compounds were analysed in triplicates.

In data set [6] the test system is SUCNR1. To be noted: full agonist on SUCNR1; cited from earlier work.

With `CCOc1ccc(-c2ccc(C(=O)N[C@@H](CC(=O)O)C(=O)O)o2)cc1` [Compound 21, (5-(4-Ethoxyphenyl)furan-2-carbonyl)-L-aspartic acid], on mSUCNR1, the response was half-maximal at 36.3 nM (EC50) and the “mSUCNR1 efficacy, %” value was 70.2 ± 2.0%. For the same compound, the “stability in mouse liver microsomes” value in data set [1] is given as “stable”. For the same compound, the Active in the data set on SUCNR1 [2] is 1 (active (1)). Moreover, in data set [3], the “stability in FaSSGF” value was “stable” and the “stability in FaSSIF” value was “stable”. In addition, in data set [3] (simulated gastrointestinal fluid FeSSIF), the “stability in FeSSIF” value is “stable”. For the same compound, the solubility (kinetic) at 24 h in the data set “physchem” is above 200 µM. In data set [4], the chemical stability is reported as above 98%.
As to `O=C(O)C[C@H](NC(=O)c1cccc(-c2ccc(OC(F)(F)F)cc2)n1)C(=O)O` [Compound 31, (6-(4-(Trifluoromethoxy)phenyl)picolinoyl)-L-aspartic acid], at mSUCNR1, the EC50 was 178 nM and the “mSUCNR1 efficacy, %” value is 69.9 ± 2.2%. In addition, in data set [1], the “stability in mouse liver microsomes” value was “stable”. Besides, the Active in the data set on SUCNR1 [2] is recorded as 1 (active (1)). Besides, in data set [3], the “stability in FaSSGF” value is “stable” and the “stability in FaSSIF” value was “stable”. For the same compound, the logD at 24 h in data set [5] was -2.13. Besides, in the data set “physchem”, the solubility (kinetic) at 24 h was above 200 µM. Further, the chemical stability in data set [4] is reported as above 98%.
For cis-epoxysuccinic acid, the EC50 with SUCNR1 [6] is 2700 nM.
